Source: ChEMBL document CHEMBL1144631, “Synthesis and biological evaluation of nucleoside analogues having 6-chloropurine as anti-SARS-CoV agents” (Bioorg Med Chem Lett, 2007)
pIC50: −log10 of the molar value. Activity calls are given as the source filed them. The rule behind the calls is not given here.

What was measured:
SARS-CoV [1] = assay: microbe, parasite or virus in culture; details: Severe acute respiratory syndrome-related coronavirus, Frankfurt1, Vero
SARS-CoV [2] = assay type: functional, organism-based; details: Severe acute respiratory syndrome-related coronavirus; Frankfurt1; Vero; 50 to 70 uM
in vitro = details: chlorocebus sabaeus, Vero E6 cells
Vero = details: chlorocebus sabaeus
SARS-CoV [3] = assay type: functional, organism-based; details: Severe acute respiratory syndrome-related coronavirus; Frankfurt1; Vero; 20 uM

SMILES: CSc1ncnc2c1ncn2[C@@H]1O[C@H](CO)[C@@H](O)[C@H]1O
- pIC50 (SARS-CoV [1]): < 3.52

SMILES: COc1ncnc2c1ncn2[C@@H]1O[C@H](CO)[C@@H](O)[C@H]1O
- pIC50 (SARS-CoV [1]): < 3.52

SMILES: OCC(CO)CCn1cnc2c(Cl)ncnc21
- pIC50 (SARS-CoV [1]): < 3.52

SMILES: Nc1nc(Cl)c2ncn([C@@H]3O[C@H](CO)[C@@H](O)[C@H]3O)c2n1
- pIC50 (SARS-CoV [1]): < 3.52

SMILES: OCC(CCn1cnc2c(Cl)ncnc21)COCc1ccccc1 (stereo not given)
- pIC50 (SARS-CoV [1]): < 3.52

SMILES: OC[C@H]1O[C@@H](n2cnc3c(Cl)ncnc32)C[C@@H]1O
- pIC50 (SARS-CoV [1]): < 3.52

SMILES: OCC1C(COCc2ccccc2)CC1n1cnc2c(Cl)ncnc21 (stereo not given)
- pIC50 (SARS-CoV [1]): 4.84
- Activity (SARS-CoV [2]): Active
- CC50 (in vitro): 78 µM

SMILES: NC(=O)c1ncn([C@@H]2O[C@H](CO)[C@@H](O)[C@H]2O)n1 [RIBAVIRIN]
- pIC50 (SARS-CoV [1]): 4.09
- CC50 (in vitro): > 850 µM

SMILES: O[C@@H]1[C@H](O)[C@@H](COCc2ccccc2)O[C@H]1n1cnc2c(Cl)ncnc21
- pIC50 (SARS-CoV [1]): 3.97
- Activity (SARS-CoV [2]): Active
- CC50 (in vitro): 174 µM

SMILES: OC[C@H]1O[C@@H](n2cnc3c(Cl)ncnc32)[C@H](O)[C@@H]1O
- CC50 (Vero): 279 µM
- Activity (SARS-CoV [3]): Active

SMILES: NC(=O)c1ncn([C@@H]2O[C@H](CO)[C@@H](O)[C@H]2O)c1O [MIZORIBINE]
- pIC50 (SARS-CoV [1]): 4.87
- CC50 (in vitro): > 700 µM

SMILES: OC[C@@H]1C[C@@H](O)[C@H](n2cnc3c(Cl)ncnc32)O1
- pIC50 (SARS-CoV [1]): < 3.52

SMILES: OCC1CC(n2cnc3c(Cl)ncnc32)C1CO (stereo not given)
- pIC50 (SARS-CoV [1]): < 3.52
